Source: PubChem BioAssay (NCI)
“And” between values parts separate entries of the source, which are not always exact repeats. Identical values can stand only once.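 Assay format: 96-well plates, 48-hour exposure. Here, GI50 denotes the concentration required for 50% inhibition of growth. TGI denotes the concentration required for complete inhibition of growth.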

How the values were obtained:
Assay in all cases: inhibition of tumour cell growth, NCI panel, 48 h
HCC-2998 colon = tested on: HCC-2998 colon
HCT-116 colon = tested on: HCT-116 colon
MALME-3M melanoma = tested on: MALME-3M melanoma
MOLT-4 leukemia = tested on: MOLT-4 leukemia
NCI/ADR-RES ovarian = tested on: NCI/ADR-RES ovarian
OVCAR-5 ovarian = tested on: OVCAR-5 ovarian
SK-MEL-5 melanoma = tested on: SK-MEL-5 melanoma
SK-OV-3 ovarian = tested on: SK-OV-3 ovarian
T-47D breast = tested on: T-47D breast
UACC-257 melanoma = tested on: UACC-257 melanoma

SMILES	GI50 (HCC-2998 colon)	TGI (HCC-2998 colon)	GI50 (HCT-116 colon)	TGI (HCT-116 colon)	GI50 (MALME-3M melanoma)	TGI (MALME-3M melanoma)	GI50 (MOLT-4 leukemia)	TGI (MOLT-4 leukemia)	GI50 (NCI/ADR-RES ovarian)	TGI (NCI/ADR-RES ovarian)	GI50 (OVCAR-5 ovarian)	TGI (OVCAR-5 ovarian)	GI50 (SK-MEL-5 melanoma)	TGI (SK-MEL-5 melanoma)	GI50 (SK-OV-3 ovarian)	TGI (SK-OV-3 ovarian)	GI50 (T-47D breast)	TGI (T-47D breast)	GI50 (UACC-257 melanoma)	TGI (UACC-257 melanoma)
COC(=O)[C@]12CC[C@@H](C)[C@H](C)[C@@H]1C1=CC[C@@H]3[C@@]4(C)C(C=O)=C[C@@](C)(COC(=O)c5ccco5)C4=CC[C@@]3(C)[C@]1(C)CC2	2.76 µM	7.17 µM	2.2 µM	6.47 µM	0.0383 µM	0.444 µM	2.11 µM	7.1 µM	4.84 µM	26.1 µM	2.32 µM	6.99 µM	0.189 µM	1.17 µM	8.41 µM	75.1 µM	2.68 µM	38.2 µM	0.108 µM	0.65 µM
O=C(Cc1ccc(-c2ccc(OCCN3CCOCC3)cc2)cn1)NCc1ccccc1	0.0316 µM and 0.166 µM	–	0.0373 µM and 0.0399 µM	> 100 µM	0.15 µM	> 100 µM	0.0999 µM and 0.0685 µM	> 100 µM	0.0334 µM and 0.0341 µM	> 100 µM	0.0605 µM and 0.119 µM	> 100 µM	0.0286 µM and 0.0399 µM	0.22 µM and 1.25 µM	0.0303 µM and 0.0549 µM	7.01 µM and > 10 µM	–	55.9 µM and > 10 µM	0.112 µM and 0.711 µM	94.9 µM and > 10 µM
Cc1cc(O)cc(-c2nn(C)cc2-c2cc(N3CCOCC3)nc(-c3cccnc3)n2)c1	13.9 µM	49.5 µM	3.06 µM	> 100 µM	11.6 µM	40.3 µM	3.65 µM	> 100 µM	3.43 µM	33 µM	12.2 µM	> 100 µM	1.76 µM	6.89 µM	6.83 µM	43.7 µM	2.82 µM	39 µM	13.4 µM	35.4 µM
COc1ccc(-c2cncn2-c2ccc(-c3nc4cc(OC)c(OC)c(OC)c4s3)cc2)cc1N	–	–	3.78 µM	> 100 µM	2.48 µM	9.97 µM	4 µM	> 100 µM	3.12 µM	> 100 µM	> 100 µM	> 100 µM	1.73 µM	4.4 µM	> 100 µM	> 100 µM	3.02 µM	> 100 µM	> 100 µM	> 100 µM
COC(=O)C[C@@H]1CC=CC(=O)/C1=C(O)/C=C/c1ccccc1	1.72 µM	3.25 µM	0.169 µM	0.329 µM	1.56 µM	3.33 µM	1.68 µM	5.46 µM	0.308 µM	1.97 µM	1.84 µM	4.57 µM	1.41 µM	2.79 µM	1.7 µM	3.88 µM	0.549 µM	2.66 µM	1.34 µM	2.86 µM
Nc1ncc(-c2ccc3ncnc(N4CCc5cc(F)c(Cl)cc54)c3c2)cc1C(F)(F)F	2.13 µM	> 100 µM	2.08 µM	> 100 µM	1.44 µM	> 100 µM	2.13 µM	> 100 µM	2.05 µM	> 100 µM	1.23 µM	> 100 µM	–	–	2.15 µM	> 100 µM	1.07 µM	> 100 µM	2.08 µM	> 100 µM
Fc1cccc(-c2nc(-c3c[nH]c4ncccc34)cs2)c1	> 100 µM	> 100 µM	7.9 µM	> 100 µM	5.62 µM	> 100 µM	> 100 µM	> 100 µM	> 100 µM	> 100 µM	> 100 µM	> 100 µM	> 100 µM	> 100 µM	11.9 µM	94.3 µM	2.34 µM	> 100 µM	> 100 µM	> 100 µM
O=CCC(O)C(O)C(O)CO (stereo not drawn)	> 100 µM	> 100 µM	> 100 µM	> 100 µM	> 100 µM	> 100 µM	> 100 µM	> 100 µM	> 100 µM	> 100 µM	> 100 µM	> 100 µM	> 100 µM	> 100 µM	> 100 µM	> 100 µM	> 100 µM	> 100 µM	55.6 µM	> 100 µM
NC(=O)/C=C/c1c[nH]c2nccnc12	–	5.28 µM	–	> 37.5 µM	–	2.18 µM	–	1.38 µM	–	> 29.1 µM	–	0.662 µM	–	10.9 µM	–	> 100 µM	–	23.5 µM	–	52.8 µM
NCCNc1nc2ccc(F)cc2c2c(=O)c3cc(F)ccc3sc12	1.77 µM	3.44 µM	1.61 µM	2.96 µM	1.91 µM	4.28 µM	1.94 µM	3.92 µM	1.7 µM	3.33 µM	1.77 µM	3.67 µM	1.68 µM	3.25 µM	5.44 µM	20.9 µM	1.72 µM	3.72 µM	2.69 µM	7.8 µM
COc1cc(-c2cn(-c3ccc(F)cc3)c(=O)[nH]2)cc(OC)c1OC	> 100 µM	> 100 µM	> 100 µM	> 100 µM	> 100 µM	> 100 µM	> 100 µM	> 100 µM	> 100 µM	> 100 µM	> 100 µM	> 100 µM	> 100 µM	> 100 µM	> 100 µM	> 100 µM	> 100 µM	> 100 µM	> 100 µM	> 100 µM
CN1CCN(c2ccc(NC(=O)c3cncnc3Nc3ccc4c(ccn4Cc4cccc(F)c4)c3)cc2)CC1	3.03 µM	7.4 µM	1 µM	3.55 µM	0.524 µM	0.976 µM	0.922 µM	3.14 µM	4.81 µM	11 µM	3.42 µM	7.32 µM	1.56 µM	5.91 µM	5.09 µM	9.78 µM	2.03 µM	8.15 µM	0.68 µM	1.45 µM
N#CC1=C(N)Oc2c(ccc3cccnc23)C1c1ccccc1 (stereo not drawn)	–	> 100 µM	–	21.3 µM	–	> 67.5 µM	–	36.9 µM	0.464 µM	12.4 µM	–	> 100 µM	–	13.9 µM	–	> 100 µM	1.45 µM	65.6 µM	–	> 79.4 µM
CCN(CC)CCC(CNc1c(C)cnc2cc(Cl)ccc12)c1ccc(Cl)c(Cl)c1 (stereo not drawn)	1.77 µM	3.36 µM	1.36 µM	8.86 µM	1.88 µM	3.5 µM	2.88 µM	10.1 µM	6.33 µM	21.3 µM	4.62 µM	18.9 µM	1.82 µM	3.26 µM	14.4 µM	28 µM	2.22 µM	7.08 µM	2.08 µM	3.93 µM
C=C(C)C1Cc2cc(C(C)=O)ccc2O1 (stereo not drawn)	–	> 100 µM	–	> 100 µM	–	> 100 µM	–	> 100 µM	–	> 100 µM	–	> 100 µM	–	> 100 µM	–	> 100 µM	–	> 100 µM	–	> 100 µM
CSc1ccc(NC(=O)CCl)cc1	–	7.19 µM	–	> 10 µM	–	–	–	> 10 µM	–	> 10 µM	–	> 10 µM	–	3.63 µM	–	> 10 µM	–	> 10 µM	–	> 10 µM
O=C1c2ccccc2-c2c1c1ccc([N+](=O)[O-])cc1c(=O)n2CCN1CCOCC1	> 100 µM	> 100 µM	> 100 µM	> 100 µM	> 100 µM	> 100 µM	48.8 µM	> 100 µM	> 100 µM	> 100 µM	> 100 µM	> 100 µM	> 100 µM	> 100 µM	> 100 µM	> 100 µM	78.4 µM	> 100 µM	–	–
COc1ccc2cn3c4ccc(O)cc4[nH]c(=O)c3c2c1	0.301 µM	6.75 µM	0.046 µM	1.95 µM	–	–	0.308 µM	16.7 µM	0.0675 µM	14.2 µM	2.72 µM	21.5 µM	0.0257 µM	3.45 µM	0.0889 µM	13.9 µM	0.573 µM	24.1 µM	8.08 µM	24.2 µM
COc1ccc(OC)c(-c2nc3sc(C)cn3c2/C=C2\C(=O)N(C)c3ccccc32)c1	–	–	18.6 µM	37.1 µM	28.5 µM	70.1 µM	15.9 µM	59 µM	15.7 µM	54.7 µM	44.9 µM	> 100 µM	14 µM	27.3 µM	28.4 µM	71.4 µM	30.8 µM	73.7 µM	29.5 µM	82.6 µM
Cn1c(=O)c2[nH]c(CCS)nc2n(C)c1=O	–	–	–	> 100 µM	–	> 100 µM	–	> 100 µM	–	> 100 µM	–	> 100 µM	–	> 100 µM	–	> 100 µM	–	> 100 µM	–	> 100 µM
O=C1Nc2cc(-c3ccc(O)cc3)ccc2/C1=C/c1ccc[nH]1	0.511 µM	> 100 µM	0.115 µM	> 100 µM	0.474 µM	5.28 µM	0.158 µM	> 32.5 µM	0.251 µM	> 100 µM	0.588 µM	> 25 µM	0.412 µM	> 100 µM	–	–	0.0591 µM	–	0.743 µM	> 100 µM
COc1ncc(-c2ccc3ncnc(Nc4cccc(Cl)c4)c3c2)cc1NS(C)(=O)=O	1.82 µM	14.8 µM	2.33 µM	10.9 µM	–	–	1.49 µM	5.21 µM	2.38 µM	29.1 µM	0.273 µM	6.51 µM	1.37 µM	3.22 µM	0.813 µM	4.16 µM	0.169 µM	1.33 µM	–	–
CCSc1nc(N)c(C#N)c(-c2ccc(OC)c(OC)c2)c1C#N	37.9 µM	> 50 µM	16.4 µM	47.5 µM	–	–	–	–	21.9 µM	> 50 µM	> 50 µM	> 50 µM	8.36 µM	29.5 µM	15.4 µM	> 50 µM	> 50 µM	> 50 µM	9.13 µM	> 50 µM
CCN1C(=O)N[C@H]2[C@@H]3NC(=O)c4ccc(Cl)n4[C@@H]3C[C@]21O	0.607 µM	4.79 µM	0.397 µM	8.32 µM	0.653 µM	4.66 µM	0.346 µM	2.37 µM	12 µM	89.8 µM	–	–	0.228 µM	0.711 µM	2.07 µM	7.56 µM	0.222 µM	0.933 µM	–	–
O=C1c2ccccc2-c2c1c1ccc3ccccc3c1n2-c1ccccc1	30.5 µM	94.4 µM	–	–	28.1 µM	66.2 µM	> 100 µM	> 100 µM	20.7 µM	58.5 µM	29.2 µM	> 100 µM	16.5 µM	50.1 µM	26.2 µM	54.1 µM	12.7 µM	41.5 µM	64.8 µM	> 100 µM
COc1ccccc1N1CCN(CC(O)Cn2c(=O)c3c(OC)nc(C)cc3c(=O)n2-c2ccccc2)CC1 (stereo not drawn)	> 100 µM	> 100 µM	67.3 µM	> 100 µM	> 100 µM	> 100 µM	> 100 µM	> 100 µM	87.9 µM	> 100 µM	> 100 µM	> 100 µM	46.2 µM	> 100 µM	23.5 µM	> 100 µM	> 100 µM	> 100 µM	–	–
CC(NNC(=S)N1CCN(c2ccccn2)CC1)c1cccc[n+]1[O-] (stereo not drawn)	–	> 100 µM	–	13.7 µM	–	–	–	> 100 µM	–	36.5 µM	–	–	–	34.8 µM	–	–	–	> 100 µM	–	> 100 µM
COc1ccccc1CNC(=O)/C=C/c1ccc(O)c(O)c1	34.6 µM	> 100 µM	52.6 µM	> 100 µM	50.3 µM	> 100 µM	–	–	66 µM	> 100 µM	> 100 µM	> 100 µM	56.8 µM	> 100 µM	38.2 µM	> 100 µM	43.4 µM	> 100 µM	84.6 µM	> 100 µM
CCCCCC/C=C\CCCCCCCCCc1cccc(OC)c1O	–	–	–	> 100 µM	–	> 100 µM	–	> 100 µM	–	> 100 µM	–	> 100 µM	–	> 100 µM	–	> 100 µM	–	> 100 µM	–	> 100 µM
